# Patent US6680333B2, “Imidazolidine derivatives, their preparation, their use and pharmaceutical preparations comprising them” (Aventis Pharma Deutschland GmbH, priority 2001, dated 2004)
# Counter-ions that a name gives are not always drawn.
# Molecular target: T1, adhesion of U937 cells (VLA-4) to hVCAM-1(1-3)-IgG (Homo sapiens, UniProt P05556+P13612)
# T1 construct: the VLA-4 integrins, are supplied in their natural form as surface molecules on human U937 cells; host or cells: Human U937 cells carry endogenous VLA-4; The partner hVCAM-1(1-3)-IgG was made in transfected COS cells (ATCC CRL1651) and used as culture supernatant
# T1 sequence (P13612 34-1032): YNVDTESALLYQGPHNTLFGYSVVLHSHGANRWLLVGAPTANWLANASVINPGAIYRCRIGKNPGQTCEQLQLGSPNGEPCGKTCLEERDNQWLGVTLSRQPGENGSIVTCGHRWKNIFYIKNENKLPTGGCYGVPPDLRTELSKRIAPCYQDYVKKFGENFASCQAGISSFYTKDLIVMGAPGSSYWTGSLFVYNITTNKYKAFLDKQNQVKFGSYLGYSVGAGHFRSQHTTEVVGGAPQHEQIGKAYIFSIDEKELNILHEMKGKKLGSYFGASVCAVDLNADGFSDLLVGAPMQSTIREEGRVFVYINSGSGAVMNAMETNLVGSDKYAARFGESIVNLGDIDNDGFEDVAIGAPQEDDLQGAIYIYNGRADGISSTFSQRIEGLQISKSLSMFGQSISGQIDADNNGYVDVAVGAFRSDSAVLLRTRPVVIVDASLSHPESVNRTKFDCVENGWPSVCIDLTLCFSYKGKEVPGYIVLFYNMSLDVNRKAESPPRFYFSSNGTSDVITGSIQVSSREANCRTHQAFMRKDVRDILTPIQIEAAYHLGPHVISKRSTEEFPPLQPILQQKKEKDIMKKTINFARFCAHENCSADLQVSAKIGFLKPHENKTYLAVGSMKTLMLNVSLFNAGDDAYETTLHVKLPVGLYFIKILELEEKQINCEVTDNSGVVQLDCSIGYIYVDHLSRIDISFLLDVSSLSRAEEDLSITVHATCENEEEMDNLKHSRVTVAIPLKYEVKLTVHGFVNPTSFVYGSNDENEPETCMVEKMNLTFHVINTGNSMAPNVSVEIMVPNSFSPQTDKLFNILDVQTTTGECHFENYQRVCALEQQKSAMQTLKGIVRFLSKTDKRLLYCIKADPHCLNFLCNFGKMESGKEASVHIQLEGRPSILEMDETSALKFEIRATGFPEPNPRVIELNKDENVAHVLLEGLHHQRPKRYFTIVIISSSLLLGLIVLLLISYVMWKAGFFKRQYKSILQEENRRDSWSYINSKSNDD
# T1 sequence (P05556 21-798): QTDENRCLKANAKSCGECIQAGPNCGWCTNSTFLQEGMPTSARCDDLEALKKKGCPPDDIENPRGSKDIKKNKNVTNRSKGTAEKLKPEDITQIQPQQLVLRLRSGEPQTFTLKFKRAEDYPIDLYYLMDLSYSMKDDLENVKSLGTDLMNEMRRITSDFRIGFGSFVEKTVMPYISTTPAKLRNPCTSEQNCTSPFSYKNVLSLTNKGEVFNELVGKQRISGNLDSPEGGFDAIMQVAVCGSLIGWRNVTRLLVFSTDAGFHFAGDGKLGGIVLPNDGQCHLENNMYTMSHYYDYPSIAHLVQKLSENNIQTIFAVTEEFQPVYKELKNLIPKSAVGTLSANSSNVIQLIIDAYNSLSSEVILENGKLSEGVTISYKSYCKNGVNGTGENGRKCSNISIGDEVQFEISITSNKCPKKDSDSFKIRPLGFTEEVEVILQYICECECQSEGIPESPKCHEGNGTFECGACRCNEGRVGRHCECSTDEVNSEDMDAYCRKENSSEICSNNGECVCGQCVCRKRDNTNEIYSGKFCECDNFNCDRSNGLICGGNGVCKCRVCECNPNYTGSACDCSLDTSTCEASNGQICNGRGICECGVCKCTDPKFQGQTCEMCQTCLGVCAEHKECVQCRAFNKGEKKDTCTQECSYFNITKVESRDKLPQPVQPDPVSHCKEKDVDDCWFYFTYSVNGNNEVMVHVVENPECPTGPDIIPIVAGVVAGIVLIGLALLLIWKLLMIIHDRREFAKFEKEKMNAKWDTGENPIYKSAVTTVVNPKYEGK
# Assay: U937/VCAM-1 cell adhesion test
# Assay type: cell-based
# Conditions: human U937 cells (ATCC CRL 1593); recombinant hVCAM-1(1-3)-IgG; read-out: IC50 (inhibition of the adhesion of U937 cells to hVCAM-1(1-3)-IgG by 50%)
# Description: A) U937/VCAM-1 Cell Adhesion Test
# The test method used for the activity of the compounds of formula I on the interaction between VCAM-1 and VLA-4 is the assay described below, which is specific for this interaction. The cellular binding components, i.e., the VLA-4 integrins, are supplied in their natural form as surface molecules on human U937 cells (ATCC CRL 1593), which belong to the leukocytes group. As specific binding components, recombinant soluble fusion proteins prepared by genetic engineering, consisting of the extracytoplasmic domain of human VCAM-1 and the constant region of a human immunoglobulin of subclass IgG1, are used.
# Assay for the measurement of the adhesion of U937 cells (ATCC CRL 1593) to hVCAM-1(1-3)-IgG
# 1. Preparation of Human VCAM-1(1-3)-IgG and Human CD4-IgG
# A genetic construct for the expression of the extracellular domain of human VCAM-1, combined with the genetic sequence of the heavy chain of the human immunoglobulin IgG1 (hinge, CH2 and CH3 regions) (from Dr. Brian Seed, Massachusetts General Hospital, Boston, USA; cf. Damle and Aruffo, Proc. Natl. Acad. Sci. USA, 88:6403 (1991)), was employed. The soluble fusion protein hVCAM-1(1-3)-IgG contained the three amino-terminal extracellular immunoglobulin-like domains of human VCAM-1 (Damle and Aruffo, Proc. Natl. Acad. Sci. USA, 88:6403 (1991)). CD4-IgG (Zettlmeissl et al., DNA and Cell Biology, 9:347 (1990)) served as a fusion protein for negative controls. The recombinant proteins were expressed as soluble proteins after DEAE/dextran-mediated DNA transfection in COS cells (ATCC CRL1651) according to standard procedures (Ausubel et al., “Current Protocols in Molecular Biology”, John Wiley & Sons, Inc., 1994).
# 2. Assay for the Measurement of the Adhesion of U937 Cells to hVCAM-1 (1-3)-IgG
# 2.1 96 well microtiter test plates (Nunc Maxisorb) were incubated at room temperature for 1 hour with 100 μL/well of a goat anti-human IgG antibody solution (10 μg/mL in 50 mM tris, pH 9.5). After removal of the antibody solution, washing was carried out once with PBS.
# 2.2 150 μL/well of a blocking buffer (1% BSA in PBS) were incubated on the plates at room temperature for 0.5 hour. After removal of the blocking buffer, washing was carried out once with PBS.
# 2.3 100 μL per well of a cell culture supernatant of transfected COS cells were incubated on the plates at room temperature for 1.5 hours. The COS cells were transfected with a plasmid which codes for the three N-terminal immunglobulin-like domains of VCAM-1, coupled to the Fc part of human IgG1 (hVCAM-l (1-3)-IgG). The content of hVCAM-1(1-3)-IgG was about 0.5-1 μg/mL. After removal of the culture supernatant, washing was carried out once with PBS.
# 2.4 The plates were incubated at room temperature for 20 minutes with 100 μL/well of Fc receptor block buffer (1 mg/mL γ-globulin, 100 mM NaCl, 100 μM MgCl2, 100 μM MnCl2, 100 μM CaCl2, 1 mg/mL BSA in 50 mM HEPES, pH 7.5). After removal of the Fc receptor block buffer, washing was carried out once with PBS.
# 2.5 20 μL of binding buffer (100 mM NaCl, 100 μM MgCl2, 100 μM MnCl2, 100 μM CaCl2, 1 mg/mL BSA in 50 mM HEPES, pH 7.5) were introduced, the substances to be tested were added in 10 μL of binding buffer and incubation was carried out for 20 minutes. Antibodies against VCAM-1 (BBT, No. BBA6) and against VLA-4 (Immunotech, No. 0764) served as controls.
# 2.6 U937 cells were incubated for 20 minutes in Fc receptor block buffer and then added by pipette in a concentration of 1×10^6/mL and in an amount of 100 μL per well (final volume […]).
# 2.7 The plates were slowly immersed at an angle of 45° in stop buffer (100 mM NaCl, 100 μM MgCl2, […], 100 μM CaCl2 in 25 mM tris, pH 7.5) and shaken off. The process was repeated.
# 2.8 50 μL/well of a dye solution (16.7 μg/mL of Hoechst dye 33258, 4% formaldehyde, 0.5% Triton X-100 in PBS) were then incubated on the plates for 15 minutes. […]
row,SMILES,IC50 [nM]
1,"COc1cc(CN2C(=O)N([C@@H](CC3CC3)C(=O)N[C@@H](CC(=O)O)c3ccccc3)C(=O)C2(C(F)(F)F)C(F)(F)F)ccc1NC(=O)Nc1ccccc1C [Example 19, (S)-3-((S)-2-(4,4-Bis(trifluoromethyl)-3-(4-(3-(2-methylphenyl)ureido)-3-methoxybenzyl)-2,5-dioxoimidazolidin-1-yl)-2-(cyclopropylmethyl)acetylamino)-3-phenylpropionic Acid]",4.4
2,"COc1cc(CN2C(=O)N([C@@H](CC3CC3)C(=O)N[C@H](C)CC(=O)O)C(=O)C2(C)C)ccc1NC(=O)Nc1ccccc1 [Example 7, (R)-3-((S)-2-(4,4-Dimethyl-3-(4-(3-phenylureido)-3-methoxybenzyl)-2,5-dioxoimidazolidin-1-yl)-2-(cyclopropylmethyl)acetylamino)-3-methylpropionic Acid]",2.1
3,"COc1cc(CN2C(=O)N([C@@H](CC3CC3)C(=O)NC(CC(=O)O)c3ccncc3)C(=O)C2(C)C)ccc1NC(=O)Nc1ccccc1C (stereo partly drawn) [Example 13, 3-((S)-2-(4,4-Dimethyl-3-(4-(3-(2-methylphenyl)ureido)-3-methoxybenzyl)-2,5-dioxoimidazolidin-1-yl)-2-(cyclopropylmethyl)acetylamino)-3-(4-pyridyl)propionic Acid Hydrochloride]",1.8
4,"Cc1ccccc1NC(=O)Nc1ccc(CN2C(=O)N([C@@H](CC3CC3)C(=O)N[C@H](C)CC(=O)O)C(=O)C2(C)C)cc1O [Example 5, (R)-3-((S)-2-(4,4-Dimethyl-3-(4-(3-(2-methylphenyl)ureido)-3-hydroxybenzyl)-2,5-dioxoimidazolidin-1-yl)-2-(cyclopropylmethyl)acetylamino)-3-methylpropionic Acid]",25.9

# Compounds with a lower IC50, results first:
row,IC50 [nM],SMILES
1,0.9,"COc1cc(CN2C(=O)N([C@@H](CC3CC3)C(=O)NC(CC(=O)O)c3ccccn3)C(=O)C2(C)C)ccc1NC(=O)Nc1ccccc1C (stereo partly drawn) [Example 16, 3-((S)-2-(4,4-Dimethyl-3-(4-(3-(2-methylphenyl)ureido)-3-methoxybenzyl)-2,5-dioxoimidazolidin-1-yl)-2-(cyclopropylmethyl)acetylamino)-3-(2-pyridyl)propionic Acid]"
2,0.6,"COc1cc(CN2C(=O)N([C@@H](CC3CC3)C(=O)NC(CC(=O)O)c3cccnc3)C(=O)C2(C)C)ccc1NC(=O)Nc1ccccc1C (stereo partly drawn) [Example 10, 3-((S)-2-(4,4-Dimethyl-3-(4-(3-(2-methylphenyl)ureido)-3-methoxybenzyl)-2,5-dioxoimidazolidin-1-yl)-2-(cyclopropylmethyl)acetylamino)-3-(3-pyridyl)propionic Acid Hydrochloride]"
3,0.5,COc1cc(CN2C(=O)N([C@@H](CC3CC3)C(=O)N[C@H](C)CC(=O)O)C(=O)C2(C)C)ccc1NC(=O)Nc1ccccc1C [Example 2]
4,0.3,"COc1cc(CN2C(=O)N([C@@H](CC3CC3)C(=O)N[C@H](C)CC(=O)O)C(=O)C2(C)C)ccc1NC(=O)Nc1ccccc1C [Example 1, (R)-3-((S)-2-(4,4-Dimethyl-3-(4-(3-(2-methylphenyl)ureido)-3-methoxybenzyl)-2,5-dioxoimidazolidin-1-yl)-2-(cyclopropylmethyl)acetylamino)-3-methylpropionic Acid]"
